Measured values: patent US20230278957A1, “TREX1 INHIBITORS AND USES THEREOF” (WAKE FOREST UNIVERSITY HEALTH SCIENCES, priority 2020, published 2023)
“Also recorded” adds a separate entry of the source. Where two headings read alike, the source gives them in different places.

How the values were obtained:
Type in all cases: biochemical
[1] = target: T1, recombinant hTREX1(1-242)WT (hT1) (Homo sapiens, UniProt Q9NSU2); experiment: fluorescence-based exonuclease assay, hTREX1 IC50 and HTS
T1 construct: recombinant hTREX1(1-242)^WT
T1 sequence (Q9NSU2 1-242): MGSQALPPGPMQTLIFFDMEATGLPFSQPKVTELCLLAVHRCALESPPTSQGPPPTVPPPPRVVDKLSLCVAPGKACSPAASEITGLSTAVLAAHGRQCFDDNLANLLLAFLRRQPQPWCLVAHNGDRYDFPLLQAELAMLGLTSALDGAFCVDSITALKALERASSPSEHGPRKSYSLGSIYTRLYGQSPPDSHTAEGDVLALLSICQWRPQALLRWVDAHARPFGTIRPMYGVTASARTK
Description: FIG. 1: Determining IC50 of Candidate Compounds. […] Standard time-course reactions were prepared in 150 µL volumes containing vehicle or indicated concentrations of inhibitor (Panel A= 0.1-10 µM; Panel C= 1-50 µM), incubated 1 hr at room temperature, and 20 µL samples of each reaction taken at time-points of 0, 5, 10, 20, 30, 45, & 60 minutes and quenched in 20 µL of 15X SYBR Green. Fluorescence was measured, and fluorescence versus time plots were normalized to maximal initial fluorescence and background fluorescence. Plots were fitted with nonlinear regression, then initial velocities of each reaction interpolated and normalized to vehicle-only control reactions to give percent activity. Plots of inhibitor concentration versus percent activity were fit with nonlinear regression to interpolate compound IC50. Plots were generated in Prism (GraphPad) and combined in PowerPoint. Active compounds had IC50 determined in at least three separate experiments. Panels E-F: Gel Assay Validation of Hit Compound IC50. Several hit compounds, including those shown, had their IC50 confirmed via gel assay to validate efficacy of the fluorescence-based biochemical assay. Results of the gel and fluorescence assays were in agreement for all compounds tested. Standard time-course reactions containing nicked plasmid were prepared in 150 µL volumes with the indicated concentrations of inhibitor, and incubated at room temperature. Reaction samples were taken at indicated times, quenched, dried in vacuo, resuspended, then visualized by agarose gel electrophoresis. Control lanes containing supercoiled dsDNA plasmid (‘Plasmid’) and undegraded nicked dsDNA plasmid (‘Nicked’) are included. Low-MW residual bands are ssDNA plasmid leftover from TREX1 exonuclease activity.
We altered a reported fluorescence-based exonuclease assay^17,23 for the purposes of HTS. The assay parameters were optimized to limit materials use and maximize the dynamic range of the assay readout. We used this assay to perform a HTS of the three mentioned libraries against recombinant hTREX1(1-242)^WT, hereafter abbreviated as ‘hT1’. In the case of all libraries, compounds eliciting ≤50% activity at their indicated screening concentrations were identified as ‘candidates’.
The biochemical assay used for HTS was also applied to determining candidate IC50. Briefly, time-course reactions were performed for a range of concentrations for each candidate, and plots of fluorescence vs time were normalized to the initial fluorescence of the reaction and the plate-wide background fluorescence. This normalization helped address compounds with inherent effects on the fluorescent readout. Initial velocities were calculated from normalized plots and used to calculate percent activities relative to vehicle-only control reactions. Standard dose-response curves were then constructed to interpolate candidate IC50. […] Candidates that initially tested with IC50 ≤100 µM had their IC50 redetermined in two additional, independent experiments. […] To validate the efficacy of the fluorescence-based assay at determining IC50, several of the hit compounds had their IC50 confirmed using a gel assay previously described by our lab^23. Briefly, a dsDNA plasmid is nicked, the substrate is incubated with TREX1 which degrades off (partially or completely) the nicked strand, and the reaction is quenched in ethanol, dried in vacuo, and visualized via agarose gel electrophoresis. Example data of these validation assays is provided (FIG. 1, Panels E-F).

hT1 = target: T2, hT1 (Homo sapiens, UniProt Q9NSU2); experiment: jump-dilution reversibility of inhibition; conditions: for reversibility classification: by IC50 ratio of jump-dilution
T2 construct: recombinant hTREX1(1-242)^WT
T2 sequence (Q9NSU2 1-242): T1 sequence (Q9NSU2 1-242)
Description: FIG. 4: Reversibility of Inhibition for Lead Compounds. Panel A: Summary chart of the results for each lead compound. IC50 ratios were calculated by dividing the […]. An IC50 ratio of 10 is expected for irreversible inhibitors, and the results were classified as follows: ≥ 5.0 → Irreversible, 2.0-5.0 → Ambiguous, 0.5-2.0 → Reversible. Panels B-G: Standard IC50 experiments were conducted with various concentrations of each lead compound. However, before enzyme addition to the reaction components the inhibitor or vehicle was pre-incubated with either the reaction components at ~1X the final concentration (‘Reaction Pre-Incubation’) or the enzyme at ~10X the final concentration (‘Enzyme Pre-Incubation’). The enzyme and reaction components were then combined to initiate reactions, and IC50 calculated as discussed earlier. TIM190 was included as an example of an irreversible inhibitor. Plots were generated in Prism (GraphPad), and figure was assembled in PowerPoint.
To determine whether our leads’ inhibition mechanisms were reversible, we utilized a strategy known as a ‘jump-dilution′^76. With this strategy, an inhibitor is initially incubated with the target at a high concentration, then, the inhibitor and target are diluted into reaction mix and the potency of the inhibitor is compared to a similar reaction without the pre-incubation step. If an inhibitor is covalent, time-dependent (slow-binding), or otherwise irreversible, then it will display potency consistent with the higher initial concentration, while reversible inhibitors’ potency is not meaningfully affected by the pre-incubation. We performed jump dilution experiments for our leads with our earlier described biochemical assay (FIG. 3). Under our conditions, irreversible inhibitors were expected to display a 10-fold potency increase in the jump-dilution reactions.

[2] = target: T3, recombinant wild-type human TREX2(1-236) (hT2) (Homo sapiens, UniProt Q9BQ50); experiment: fluorescence-based exonuclease assay, counter-screen against hTREX2; conditions: up to an inhibitor concentration of 100 µM
T3 construct: recombinant wild-type human TREX2(1-236), hereafter ‘hT2’
T3 sequence (Q9BQ50 1-236): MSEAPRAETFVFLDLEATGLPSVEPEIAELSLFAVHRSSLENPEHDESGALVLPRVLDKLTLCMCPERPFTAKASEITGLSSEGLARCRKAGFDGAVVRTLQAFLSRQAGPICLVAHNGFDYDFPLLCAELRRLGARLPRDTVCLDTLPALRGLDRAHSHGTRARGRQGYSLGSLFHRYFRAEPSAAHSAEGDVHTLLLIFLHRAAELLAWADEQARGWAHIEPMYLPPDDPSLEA
Description: (§1) FIG. 3: Counter-Screening Hit Compounds Against mTREX1 and hTREX2 Enzymes. Panel A: Summary chart of lead compounds’ IC50 against hTREX1 vs mTREX1 versus hTREX2. Panels B-F: Overlay of lead compounds’ dose-response curves for hTREX1, mTREX1, and hTREX2. Dose-response curves were generated as described earlier. Each dose-response curve is representative of three IC50 experiments. Graphs were prepared in Prism (GraphPad), and figure was assembled in PowerPoint.
(§2) We were also interested in the activity of our leads against enzymes more closely related to hT1, namely murine TREX1 and the highly related human TREX2 enzyme. mTREX1 was of interest, since future studies of the lead compounds would presumably take place in a murine model. hTREX2, which also functions as a 3′➔5′ exonuclease, is primarily expressed in keratinocytes (while TREX1 expression is more ubiquitous), and its mutation is not associated with an autoimmune phenotype, but instead results in a hypermutator phenotype in the skin that is conditional upon exposure to ultraviolet radiation^10,72-74. For mTREX1, cross-activity was preferred to allow later efficacy studies in a murine model. […] We determined the IC50 of lead compounds for recombinant wild-type murine TREX1(1-242), hereafter ‘mT1’, and for recombinant wild-type human TREX2(1-236), hereafter ‘hT2’ (FIG. 2). […]

[3] = target: T4, recombinant wild-type murine TREX1(1-242) (mT1) (Mus musculus, UniProt Q91XB0); experiment: fluorescence-based exonuclease assay, counter-screen against mTREX1; conditions: up to an inhibitor concentration of 100 µM
T4 construct: recombinant wild-type murine TREX1(1-242), hereafter ‘mT1’
T4 sequence (Q91XB0 1-242): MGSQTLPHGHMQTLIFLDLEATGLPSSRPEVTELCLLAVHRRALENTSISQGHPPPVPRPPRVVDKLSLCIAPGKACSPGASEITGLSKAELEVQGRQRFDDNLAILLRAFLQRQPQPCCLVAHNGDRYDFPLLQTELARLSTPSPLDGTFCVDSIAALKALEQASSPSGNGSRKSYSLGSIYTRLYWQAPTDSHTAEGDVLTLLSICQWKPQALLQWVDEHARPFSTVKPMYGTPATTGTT
Description: as §1, §2

[4] = experiment 1, read-out: IC50 #1
[5] = experiment 2, read-out: IC50 #2
[6] = experiment 3, read-out: IC50 #3
[7] = median of three independent experiments, read-out: Median IC50

Compound	IC50 [1, 4]	IC50 [1, 5]	IC50 [1, 6]	IC50 [1, 7]	reversibility classification (hT1)	increase in potency as a result of the jump-dilution (hT1; enzyme pre-incubation vs control reaction, 10-fold expected for irreversible inhibitors)	inhibition of hT1 (in words) [1]	inhibition of hT2 [2]	inhibition of mT1 [3]
Cc1cccc(C(=O)Nc2ccc(-c3cc4ccccc4oc3=O)cc2)c1 [TIM003]	24.9 µM	7.8 µM	8.8 µM	8.8 µM					
Cc1cnc(/C=C/c2ccccc2)c2[nH]c3ccccc3c12 [TIM047]	16 µM	6.8 µM	15 µM	15 µM					
COc1ccc(N2C(=O)c3ccc(Oc4ccc(Oc5ccc(C(=O)O)cc5)cc4)cc3C2=O)cc1 [TIM050]	3.7 µM	3 µM	5.3 µM	3.7 µM					
O=C1c2cccc([N+](=O)[O-])c2C(=O)N1c1cccc(-c2nc3ccccc3c(=O)o2)c1 [TIM136]	5.7 µM	9.9 µM	10.2 µM	9.9 µM					
Cc1ccc(-c2noc(-c3cc(N4CCC(C(N)=O)CC4)nc4ccccc34)n2)cc1 [TIM178]	6.9 µM	3.7 µM	7.2 µM	6.9 µM					
CC(C)(C)c1ccc(CC2CCN(C(=O)c3cncn3-c3cccc(-c4cccc5c4sc4ccccc45)c3)CC2)cc1 [TIM181]	3.5 µM	5.9 µM	4.6 µM	4.6 µM					
N#Cc1c(O)nc(SCC(=O)N2c3ccccc3Sc3ccccc32)nc1-c1ccccc1 [TIM183]	3.6 µM	8.5 µM	8.8 µM	8.5 µM					
O=C(O)c1ccc(-c2ccc(/C=c3\sc4nc5cc(Br)cnc5n4c3=O)o2)cc1 [TIM190]	10.7 µM	10.7 µM	13.5 µM	10.7 µM	irreversible				
Cn1c(O)c(N=NC(=O)[C@@H]2COc3cc4ccccc4cc3O2)c2cc(Br)ccc21 [TIM191]	8.5 µM	7.8 µM	10 µM	8.5 µM					
COc1cc2c3c(ccc4c5ccc6c7c(cc(OC)c(c1c34)c75)-c1ccccc1C6=O)-c1ccccc1C2=O [TIM192]	13.3 µM	13 µM	8.1 µM	13 µM					
O=c1c2cnc3nc(-c4ccc(Cl)cc4)nn3c2ccn1Cc1cccnc1 [TIM215]	13.9 µM	14.6 µM	12 µM	13.9 µM					
O=C(c1ccc2nonc2c1)N1CCCCC1c1nc2cc(F)ccc2[nH]1 (stereo not shown) [TIM218]	12.7 µM	7.6 µM	17.8 µM	12.7 µM			did inhibit hT1	no detectable inhibition	no detectable inhibition; also recorded: does not inhibit mT1

More lines, main results first:

IC50 [1, 4]	IC50 [1, 5]	IC50 [1, 6]	IC50 [1, 7]	reversibility classification (hT1)	increase in potency as a result of the jump-dilution (hT1; enzyme pre-incubation vs control reaction, 10-fold expected for irreversible inhibitors)	inhibition of hT1 (in words) [1]	inhibition of hT2 [2]	Compound	inhibition of mT1 [3]
6.7 µM	16.2 µM	5.6 µM	6.7 µM					CCn1c2ccccc2c2cc([C@H]3Nc4ccccc4NC4=C3C(=O)C[C@@H](c3ccc(OC)cc3)C4)ccc21 [TIM137]	
15 µM	6.4 µM	37.9 µM	15 µM					Cc1cc(C)c(S(=O)(=O)Nc2ccc3c(c2)c2c(n3S(=O)(=O)c3cc(C)c(C)cc3C)CCCC2=O)cc1C [TIM146]	
6.4 µM	8.5 µM	11.9 µM	8.5 µM					Cc1ccc(-n2c(=O)c3cc4c(=O)n(-c5ccc(C)c(C)c5)c(=O)c4c(C(=O)c4ccc(C(=O)O)cc4)c3c2=O)cc1C [TIM148]	
5.1 µM	7 µM	7 µM	7 µM					COc1ccc2[nH]c3c(c2c1)CCC[C@H]3NC(=O)COc1ccc2c3c(c(=O)oc2c1)CCCC3 [TIM184]	
13.1 µM	14.9 µM	113 µM	14.9 µM					Cc1ccc2nc(N3C(=O)C(=O)C(=C(O)c4ccc5c(c4)C[C@H](C)O5)[C@@H]3c3cccs3)sc2c1 [TIM185]	
13.5 µM	7.8 µM	8.9 µM	8.9 µM	ambiguous	2.9 fold			Cc1ccc(N2NC(=O)/C(=C/c3ccc(-c4ccc5c(c4)C(=O)NC5=O)o3)C2=O)cc1C [TIM207]	
2.4 µM	5 µM	10.7 µM	5 µM					O=C1Nc2ccc(S(=O)(=O)ON3C(=O)c4cccc5cccc(c45)C3=O)c3cccc1c23 [TIM213]	
